Measured values as given in ChEMBL document CHEMBL1201862, “PubChem BioAssay data set” (2004).
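Interpolation was linear, between the two tested concentrations surrounding the appropriate level; five concentrations were tested over 48 hours in 96-well plates. At the GI50, growth is halved.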 Activity calls are given as the source filed them. No stated cut-off is given here; in the data, active = GI50 up to about 1.1 µM and inactive = higher.

What was measured:
Assay in all cases: DTP human tumour cell line panel, 48 h
A549 = system: A549
COLO 205 = system: COLO 205
DU-145 = system: DU-145
EKVX = system: EKVX
HCT-116 = system: HCT-116
HCT-15 = system: HCT-15
HL-60 = system: HL-60
HT-29 = system: HT-29
M14 = system: M14
MDA-N = system: MDA-N
MOLT-4 = system: MOLT-4
NCI-H460 = system: NCI-H460
PC-3 = system: PC-3
SF-539 = system: SF-539
SK-MEL-28 = system: SK-MEL-28
SNB-19 = system: SNB-19
SNB-75 = system: SNB-75
UACC-257 = system: UACC-257
A498 = system: A498
RPMI-8226 = system: RPMI-8226

## CC1=CC(=O)/C(=C/N2C(=O)CNC2=S)C(=O)O1
A549
  GI50: > 100 µM (inactive)
COLO 205
  GI50: > 100 µM (inactive)
DU-145
  GI50: > 100 µM (inactive)
EKVX
  GI50: > 100 µM (inactive)
HCT-116
  GI50: > 100 µM (inactive)
HCT-15
  GI50: > 100 µM
HL-60
  GI50: > 100 µM (inactive)
HT-29
  GI50: > 100 µM (inactive)
M14
  GI50: > 100 µM (inactive)
MDA-N
  GI50: > 100 µM (inactive)
MOLT-4
  GI50: > 100 µM (inactive)
NCI-H460
  GI50: > 100 µM (inactive)
PC-3
  GI50: > 100 µM (inactive)
SF-539
  GI50: > 100 µM (inactive)
SK-MEL-28
  GI50: > 100 µM (inactive)
SNB-19
  GI50: > 100 µM (inactive)
SNB-75
  GI50: > 100 µM (inactive)
UACC-257
  GI50: > 100 µM (inactive)

## COc1cc2c(cc1OC)C1Cc3ccccc3CN1CCC2 (centres undefined)
A498
  GI50: 97.7 µM (inactive)
A549
  GI50: > 100 µM (inactive)
COLO 205
  GI50: > 100 µM (inactive)
DU-145
  GI50: > 100 µM (inactive)
EKVX
  GI50: > 100 µM (inactive)
HCT-116
  GI50: 91.6 µM (inactive)
HCT-15
  GI50: > 100 µM
HT-29
  GI50: 66.8 µM (inactive)
M14
  GI50: 93.5 µM (inactive)
MDA-N
  GI50: 45 µM (inactive)
MOLT-4
  GI50: 67.6 µM (inactive)
NCI-H460
  GI50: > 100 µM (inactive)
PC-3
  GI50: > 100 µM (inactive)
SF-539
  GI50: > 100 µM (inactive)
SK-MEL-28
  GI50: > 100 µM (inactive)
SNB-19
  GI50: > 100 µM (inactive)
SNB-75
  GI50: 37.6 µM (inactive)
UACC-257
  GI50: > 100 µM (inactive)

## O=C1/C(=C/c2ccc(OC(=O)c3ccc(Cl)cc3)cc2)CCC/C1=C\c1ccc(OC(=O)c2ccc(Cl)cc2)cc1
A549
  GI50: > 100 µM (inactive)
COLO 205
  GI50: > 100 µM (inactive)
DU-145
  GI50: > 100 µM (inactive)
EKVX
  GI50: > 100 µM (inactive)
HCT-116
  GI50: > 100 µM (inactive)
HCT-15
  GI50: > 100 µM
HL-60
  GI50: > 100 µM (inactive)
HT-29
  GI50: > 100 µM (inactive)
M14
  GI50: > 100 µM (inactive)
MDA-N
  GI50: > 100 µM (inactive)
MOLT-4
  GI50: > 100 µM (inactive)
NCI-H460
  GI50: > 100 µM (inactive)
PC-3
  GI50: > 100 µM (inactive)
RPMI-8226
  GI50: > 100 µM (inactive)
SF-539
  GI50: 30 µM (inactive)
SK-MEL-28
  GI50: > 100 µM (inactive)
SNB-19
  GI50: > 100 µM (inactive)
SNB-75
  GI50: 21 µM (inactive)
UACC-257
  GI50: > 100 µM (inactive)

## CCOC(=O)C(Cc1ccc(OC(=O)OC(C)(C)C)cc1)NC(=O)OC(C)(C)C (centres undefined)
A549
  GI50: > 100 µM (inactive)
COLO 205
  GI50: 39.7 µM (inactive)
DU-145
  GI50: 30.5 µM (inactive)
EKVX
  GI50: > 100 µM (inactive)
HCT-116
  GI50: 78 µM (inactive)
HCT-15
  GI50: > 100 µM
HL-60
  GI50: 28.2 µM (inactive)
HT-29
  GI50: > 100 µM (inactive)
M14
  GI50: 26.5 µM (inactive)
MDA-N
  GI50: > 100 µM (inactive)
MOLT-4
  GI50: 19.7 µM (inactive)
NCI-H460
  GI50: > 100 µM (inactive)
PC-3
  GI50: 34.5 µM (inactive)
SF-539
  GI50: 44.8 µM (inactive)
SK-MEL-28
  GI50: > 100 µM (inactive)
SNB-19
  GI50: > 100 µM (inactive)
SNB-75
  GI50: 17.1 µM (inactive)
UACC-257
  GI50: 21.3 µM (inactive)

## O=C(c1ccccc1)C1C(c2ccccc2[N+](=O)[O-])N1C1CCCCC1 (centres undefined)
A498
  GI50: 16.7 µM (inactive)
A549
  GI50: 16.6 µM (inactive)
COLO 205
  GI50: 7.26 µM (inactive)
DU-145
  GI50: 10.1 µM (inactive)
EKVX
  GI50: 13.7 µM (inactive)
HCT-116
  GI50: 1.8 µM (inactive)
HCT-15
  GI50: 3.52 µM
HT-29
  GI50: 4.1 µM (inactive)
M14
  GI50: 9.42 µM (inactive)
MDA-N
  GI50: 2.06 µM (inactive)
MOLT-4
  GI50: 2.43 µM (inactive)
NCI-H460
  GI50: 9.2 µM (inactive)
PC-3
  GI50: 3.95 µM (inactive)
RPMI-8226
  GI50: 1.72 µM (inactive)
SF-539
  GI50: 2.1 µM (inactive)
SK-MEL-28
  GI50: > 42.3 µM (inactive)
SNB-19
  GI50: 16.3 µM (inactive)
UACC-257
  GI50: 3.21 µM (inactive)

## CC1=CC(=O)/C(=C/NC(=S)C(N)=S)C(=O)O1
A549
  GI50: > 100 µM (inactive)
COLO 205
  GI50: > 100 µM (inactive)
DU-145
  GI50: > 100 µM (inactive)
EKVX
  GI50: > 100 µM (inactive)
HCT-116
  GI50: > 100 µM (inactive)
HCT-15
  GI50: > 100 µM
HL-60
  GI50: 47.5 µM (inactive)
HT-29
  GI50: > 100 µM (inactive)
M14
  GI50: > 100 µM (inactive)
MDA-N
  GI50: > 100 µM (inactive)
MOLT-4
  GI50: 16 µM (inactive)
NCI-H460
  GI50: > 100 µM (inactive)
PC-3
  GI50: > 100 µM (inactive)
RPMI-8226
  GI50: > 100 µM (inactive)
SF-539
  GI50: > 100 µM (inactive)
SK-MEL-28
  GI50: > 100 µM (inactive)
SNB-19
  GI50: > 100 µM (inactive)
SNB-75
  GI50: 19 µM (inactive)
UACC-257
  GI50: > 100 µM (inactive)

## C/C(=C/C(=O)Nn1c(Cc2ccccc2)n[nH]c1=O)C(=O)O
A549
  GI50: > 100 µM (inactive)
COLO 205
  GI50: > 100 µM (inactive)
DU-145
  GI50: > 100 µM (inactive)
EKVX
  GI50: > 100 µM (inactive)
HCT-116
  GI50: > 100 µM (inactive)
HCT-15
  GI50: > 100 µM
HL-60
  GI50: > 100 µM (inactive)
HT-29
  GI50: > 100 µM (inactive)
M14
  GI50: > 100 µM (inactive)
MDA-N
  GI50: > 100 µM (inactive)
MOLT-4
  GI50: > 100 µM (inactive)
NCI-H460
  GI50: > 100 µM (inactive)
PC-3
  GI50: > 100 µM (inactive)
RPMI-8226
  GI50: > 100 µM (inactive)
SF-539
  GI50: > 100 µM (inactive)
SK-MEL-28
  GI50: > 100 µM (inactive)
SNB-19
  GI50: > 100 µM (inactive)
SNB-75
  GI50: > 100 µM (inactive)
UACC-257
  GI50: > 100 µM (inactive)
